For one assay, the system named is Pseudomonas aeruginosa. The experiment in a line: Antibacterial activity against Pseudomonas aeruginosa by broth micro-dilution technique. In kind it is functional.
The test system of another assay is Klebsiella pneumoniae. The experiment in a line: Antibacterial activity against Klebsiella pneumoniae by broth micro-dilution technique. The class given is functional.
A further assay concerns Enterococcus faecalis. The experiment in a line: Antibacterial activity against Streptococcus faecalis by broth micro-dilution technique. In kind it is functional.
Another assay concerns Trichophyton benhamiae. The experiment in a line: Antifungal activity against Trichophyton mentagrophytes by broth micro-dilution technique. In kind it is functional, Arthroderma benhamiae.
Another assay concerns Candida parapsilosis. The experiment in a line: Antifungal activity against Candida parapsilosis ATCC 22019 by broth micro-dilution technique. The class given is functional. As to conditions: Lodderomyces parapsilosis.
For the next assay, the system named is Sporothrix schenckii. In words: Antifungal activity against Sporothrix schenckii by broth micro-dilution technique. The class given is functional.
In a further assay the test system is Escherichia coli. In words: Antibacterial activity against Escherichia coli by broth micro-dilution technique. In kind it is functional.
The test system of the next assay is Cryptococcus neoformans. The experiment in a line: Antifungal activity against Cryptococcus neoformans by broth micro-dilution technique. The class given is functional.
A further assay deals with Candida albicans. In words: Antifungal activity against Candida albicans by broth micro-dilution technique. In kind it is functional.
Another assay has as its system Aspergillus fumigatus. In words: Antifungal activity against Aspergillus fumigatus by broth micro-dilution technique. In kind it is functional.
The next assay relates to Staphylococcus aureus. In words: Antibacterial activity against Staphylococcus aureus by broth micro-dilution technique. The class given is functional.

8 compounds from ChEMBL document CHEMBL1138373, “New antifungal flavonoid glycoside from Vitex negundo” (2007) can be followed below.

≈ marks a conversion by molar mass, not a printed value. Some results are limits rather than exact numbers.

As to `COC(=O)[C@H]1O[C@@H](Oc2cc(-c3cc(=O)c4c(O)cc(O)cc4o3)ccc2O)[C@H](O)[C@@H](O)[C@@H]1O`, the MIC with Pseudomonas aeruginosa was more than 50 µg/mL; against Klebsiella pneumoniae it was more than 50 µg/mL; against Enterococcus faecalis it was more than 50 µg/mL; in the assay on Trichophyton benhamiae, 6.25 µg/mL (≈ 13.1 µM); in the assay with Candida parapsilosis it was more than 50 µg/mL; with Sporothrix schenckii, more than 50 µg/mL. Further, the MIC in the assay with Escherichia coli was more than 50 µg/mL; in the assay with Cryptococcus neoformans it was 6.25 µg/mL (≈ 13.1 µM); against Candida albicans it was more than 50 µg/mL; against Aspergillus fumigatus, more than 50 µg/mL; against Staphylococcus aureus it was more than 50 µg/mL.

`C[C@]1(O)CC[C@@H]2C(C(=O)O)=CO[C@@H](O[C@H]3O[C@@H](CO)[C@H](O)[C@@H](O)[C@@H]3OC(=O)c3ccc(O)cc3)[C@@H]21`: the minimal inhibitory concentration (MIC) against Pseudomonas aeruginosa was 25 µg/mL (≈ 50.4 µM); in the assay with Klebsiella pneumoniae it was 25 µg/mL (≈ 50.4 µM); in the assay with Enterococcus faecalis, more than 50 µg/mL; against Trichophyton benhamiae, 6.25 µg/mL (≈ 12.6 µM); in the assay on Candida parapsilosis it was more than 50 µg/mL; in the assay with Sporothrix schenckii it was more than 50 µg/mL. Moreover, the MIC in the assay with Escherichia coli is 25 µg/mL (≈ 50.4 µM); with Cryptococcus neoformans, 6.25 µg/mL (≈ 12.6 µM); with Candida albicans it was more than 50 µg/mL; with Aspergillus fumigatus, 50 µg/mL (≈ 101 µM); in the assay with Staphylococcus aureus, 50 µg/mL (≈ 101 µM).

In the case of `COc1ccc(-c2oc3cc(OC)c(OC)c(O)c3c(=O)c2OC)cc1OC` [ARTEMETIN], the MIC is 50 µg/mL (≈ 129 µM) in the assay on Pseudomonas aeruginosa; 25 µg/mL (≈ 64.4 µM) in the assay with Klebsiella pneumoniae; more than 50 µg/mL against Enterococcus faecalis; 25 µg/mL (≈ 64.4 µM) against Trichophyton benhamiae; 25 µg/mL (≈ 64.4 µM) in the assay on Candida parapsilosis; more than 50 µg/mL in the assay on Sporothrix schenckii. For the same compound, the MIC with Escherichia coli was 50 µg/mL (≈ 129 µM); in the assay on Cryptococcus neoformans, 12.5 µg/mL (≈ 32.2 µM); against Candida albicans it was more than 50 µg/mL; with Aspergillus fumigatus it was 50 µg/mL (≈ 129 µM); in the assay on Staphylococcus aureus, 25 µg/mL (≈ 64.4 µM).

Turning to `O=c1cc(-c2ccc(O)c(O)c2)oc2cc(O)c([C@@H]3O[C@H](CO)[C@@H](O)[C@H](O)[C@H]3O)c(O)c12` [ISOORIENTIN], the MIC was more than 50 µg/mL with Pseudomonas aeruginosa; 25 µg/mL (≈ 55.8 µM) against Klebsiella pneumoniae; 25 µg/mL (≈ 55.8 µM) in the assay on Enterococcus faecalis; 12.5 µg/mL (≈ 27.9 µM) against Trichophyton benhamiae; more than 50 µg/mL against Candida parapsilosis; more than 50 µg/mL with Sporothrix schenckii. Besides, the MIC was 25 µg/mL (≈ 55.8 µM) against Escherichia coli; 25 µg/mL (≈ 55.8 µM) with Cryptococcus neoformans; more than 50 µg/mL in the assay with Candida albicans; 50 µg/mL (≈ 112 µM) in the assay with Aspergillus fumigatus; 25 µg/mL (≈ 55.8 µM) in the assay with Staphylococcus aureus.

For the compound `O=C(OCC1=C[C@@H](O)[C@@H]2C=CO[C@@H](O[C@H]3O[C@@H](CO)[C@H](O)[C@@H](O)[C@@H]3O)[C@H]12)c1ccc(O)cc1`, the MIC against Pseudomonas aeruginosa was more than 50 µg/mL; in the assay on Klebsiella pneumoniae, 50 µg/mL (≈ 107 µM); in the assay on Enterococcus faecalis, more than 50 µg/mL; with Trichophyton benhamiae, 12.5 µg/mL (≈ 26.8 µM); against Candida parapsilosis, more than 50 µg/mL; in the assay with Sporothrix schenckii it was more than 50 µg/mL. The MIC was more than 50 µg/mL in the assay with Escherichia coli; 12.5 µg/mL (≈ 26.8 µM) against Cryptococcus neoformans; more than 50 µg/mL against Candida albicans; more than 50 µg/mL against Aspergillus fumigatus; more than 50 µg/mL against Staphylococcus aureus.

With `OC(Cn1cncn1)(Cn1cncn1)c1ccc(F)cc1F` [FLUCONAZOLE], the MIC with Trichophyton benhamiae worked out at 2 µg/mL (≈ 6.53 µM); against Candida parapsilosis, 1 µg/mL (≈ 3.27 µM); in the assay with Sporothrix schenckii, 2 µg/mL (≈ 6.53 µM); against Cryptococcus neoformans, 1 µg/mL (≈ 3.27 µM); with Candida albicans it was 0.5 µg/mL (≈ 1.63 µM); in the assay with Aspergillus fumigatus it was 2 µg/mL (≈ 6.53 µM).

As for `CC1(C)S[C@@H]2[C@H](NC(=O)[C@H](N)c3ccccc3)C(=O)N2[C@H]1C(=O)O` [AMPICILLIN], the MIC against Pseudomonas aeruginosa was found to be 50 µg/mL (≈ 143 µM); in the assay on Klebsiella pneumoniae, 0.09 µg/mL (≈ 0.258 µM); with Enterococcus faecalis, 0.02 µg/mL (≈ 0.0572 µM); with Staphylococcus aureus it was 0.09 µg/mL (≈ 0.258 µM).

Take `O=c1cc(-c2ccc(O)c(O)c2)oc2cc(O)cc(O)c12` [LUTEOLIN]: the MIC was 25 µg/mL (≈ 87.3 µM) in the assay on Pseudomonas aeruginosa; 25 µg/mL (≈ 87.3 µM) in the assay with Klebsiella pneumoniae; 25 µg/mL (≈ 87.3 µM) in the assay with Enterococcus faecalis; 50 µg/mL (≈ 175 µM) against Trichophyton benhamiae; 25 µg/mL (≈ 87.3 µM) in the assay on Candida parapsilosis; more than 50 µg/mL with Sporothrix schenckii. In addition, the MIC is 50 µg/mL (≈ 175 µM) with Escherichia coli; 25 µg/mL (≈ 87.3 µM) in the assay with Cryptococcus neoformans; more than 50 µg/mL against Candida albicans; more than 50 µg/mL with Aspergillus fumigatus; 25 µg/mL (≈ 87.3 µM) against Staphylococcus aureus.
